From patent US10118918B2, “PRMT5 inhibitors and uses thereof” (Epizyme, Inc., priority 2012, dated 2018)
pIC50: −log10 of the molar value.

Biological target: PRMT5/MEP50 (Homo sapiens (Human), UniProt O14744)
Assay: PRMT5 Biochemical Assay (PRMT5/MEP50 enzyme assay on peptide substrate, 3H-SAM Flashplate)
Settings: PRMT5/MEP50 4 nM, 3H-SAM 75 nM, peptide 40 nM
Text: S-adenosylmethionine (SAM), S-adenosylhomocysteine (SAH), bicine, KCl, Tween20, dimethylsulfoxide (DMSO), bovine skin gelatin (BSG), and Tris(2-carboxyethyl)phosphine hydrochloride solution (TCEP) were purchased from Sigma-Aldrich at the highest level of purity possible. ^3H-SAM was purchase from American Radiolabeled Chemicals with a specific activity of 80 Ci/mmol. 384-well streptavidin Flashplates were purchased from PerkinElmer.
Peptide representative of human histone H4 residues 1-15 was synthesized with a C-terminal linker-affinity tag motif and a C-terminal amide cap by 21st Century Biochemicals. The peptide was high high-performance liquid chromatography (HPLC) purified to greater than 95% purity and confirmed by liquid chromatography mass spectrometry (LC-MS). The sequence was Ac-[…][K-Biot]-amide (SEQ ID NO.: 3).
Full-length human PRMT5 (NM_006109.3) transcript variant 1 clone was amplified from a fetal brain cDNA library, incorporating flanking 5′ sequence encoding a FLAG tag ([…]) (SEQ ID NO.: 4) fused directly to Ala 2 of PRMT5. Full-length human MEP50 (NM_024102) clone was amplified from a human testis cDNA library incorporating a 5′ sequence encoding a 6-histidine tag (MHHHHHH) (SEQ ID NO.: 5) fused directly to Arg 2 of MEP50. The amplified genes were sublconed into pENTR/D/TEV (Life Technologies) and subsequently transferred by Gateway™ attL x attR recombination to pDEST8 baculvirus expression vector (Life Technologies).
Recombinant baculovirus and Baculovirus-Infected Insect Cells (BIIC) were generated according to Bac-to-Bac kit instructions (Life Technologies) and Wasilko, 2006, respectively. Protein over-expression was accomplished by infecting exponentially growing Spodoptera frugiperda (SF9) cell culture at 1.2×10^6 cell/ml with a 5000 fold dilution of BIIC stock. Infections were carried out at 27° C. for 72 hours, harvested by centrifugation, and stored at −80° C. for purification.
Flag-PRMT5/6His-MeP50 was eluted with 300 mM Imidazole in the same buffer. The purity of recovered protein was 87%. Reference: Wasilko, D. J. and S. E. Lee: “TIPS: titerless infected-cells preservation and scale-up” Bioprocess J., 5 (2006), pp. 29-32.
General Procedure for PRMT5/MEP50 Enzyme Assays on Peptide Substrates.
The assays were all performed in a buffer consisting of 20 mM Bicine (pH=7.6), 1 mM TCEP, 0.005% BSG, and 0.002% Tween20, prepared on the day of use. Compounds in 100% DMSO (1 ul) were spotted into a polypropylene 384-well V-bottom plates (Greiner) using a Platemate Plus outfitted with a 384-channel head (Thermo Scientific). DMSO (1 ul) was added to Columns 11, 12, 23, 24, rows A-H for the maximum signal control and 1 ul of SAH, a known product and inhibitor of PRMT5/MEP50, was added to columns 11, 12, 23, 24, rows I-P for the minimum signal control. A cocktail (40 ul) containing the PRMT5/MEP50 enzyme and the peptide was added by Multidrop Combi (Thermo-Fisher). The compounds were allowed to incubate with PRMT5/MEP50 for 30 min at 25 degrees Celsius, then a cocktail (10 ul) containing ^3H-SAM was added to initiate the reaction (final volume=51 ul). The final concentrations of the components were as follows: PRMT5/MEP50 was 4 nM, ^3H-SAM was 75 nM, peptide was 40 nM, SAH in the minimum signal control wells was 100 uM, and the DMSO concentration was 1%. The assays were stopped by the addition of non-radioactive SAM (10 ul) to a final concentration of 600 uM, which dilutes the ^3H-SAM to a level where its incorporation into the peptide substrate is no longer detectable. 50 ul of the reaction in the 384-well polypropylene plate was then transferred to a 384-well Flashplate and the biotinylated peptides were allowed to bind to the streptavidin surface for at least 1 hour before being washed three times with 0.1% Tween20 in a Biotek ELx405 plate washer. […]

Chain of PRMT5/MEP50 (O14744 other isoform, or with tags, fused parts or gaps): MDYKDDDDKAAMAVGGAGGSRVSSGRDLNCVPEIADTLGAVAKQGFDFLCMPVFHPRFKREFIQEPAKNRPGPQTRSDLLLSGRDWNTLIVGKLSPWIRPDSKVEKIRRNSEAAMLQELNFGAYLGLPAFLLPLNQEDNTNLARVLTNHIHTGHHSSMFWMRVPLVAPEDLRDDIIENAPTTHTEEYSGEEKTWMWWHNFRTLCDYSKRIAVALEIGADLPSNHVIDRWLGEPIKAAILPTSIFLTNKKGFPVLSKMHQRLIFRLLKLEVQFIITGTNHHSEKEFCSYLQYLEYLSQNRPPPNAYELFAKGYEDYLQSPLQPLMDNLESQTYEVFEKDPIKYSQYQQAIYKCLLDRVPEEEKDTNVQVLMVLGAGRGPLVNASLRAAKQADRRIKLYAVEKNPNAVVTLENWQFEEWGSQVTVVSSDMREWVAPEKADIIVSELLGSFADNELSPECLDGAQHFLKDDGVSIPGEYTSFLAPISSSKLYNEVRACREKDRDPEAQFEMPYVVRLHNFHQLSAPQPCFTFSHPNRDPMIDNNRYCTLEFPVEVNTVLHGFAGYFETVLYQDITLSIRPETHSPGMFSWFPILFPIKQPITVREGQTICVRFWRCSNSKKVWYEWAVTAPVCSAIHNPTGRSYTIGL
Chain of PRMT5/MEP50 (Q9BQA1 other isoform, or with tags, fused parts or gaps partner): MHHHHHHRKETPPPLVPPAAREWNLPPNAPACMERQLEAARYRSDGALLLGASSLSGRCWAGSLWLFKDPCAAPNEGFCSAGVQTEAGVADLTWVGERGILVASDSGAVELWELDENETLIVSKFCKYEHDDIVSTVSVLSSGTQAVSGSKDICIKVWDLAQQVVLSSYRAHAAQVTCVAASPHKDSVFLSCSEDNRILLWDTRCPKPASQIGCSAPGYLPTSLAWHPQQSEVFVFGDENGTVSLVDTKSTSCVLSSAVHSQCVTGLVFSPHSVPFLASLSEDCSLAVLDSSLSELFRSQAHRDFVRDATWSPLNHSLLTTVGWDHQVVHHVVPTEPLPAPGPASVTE

Row | Molecule | pIC50
1 | C[C@@H](Oc1cccc2cccnc12)C(=O)NC[C@H](O)CN1Cc2ccccc2C1 [compound 5, (R)—N—((S)-2-hydroxy-3-(isoindolin-2-yl)propyl)-2-(quinolin-8-yloxy)propanamide] | > 7.00
2 | O=C(COc1ccccc1-c1cc[nH]n1)NCC(O)CN1Cc2ccccc2C1 (stereo not shown) [compound 7] | 6.00 to 7.00
3 | O=C(NCC(O)CN1Cc2ccccc2C1)c1cccc(-c2ccccn2)c1 (stereo not shown) [compound 13, N-(2-hydroxy-3-(isoindolin-2-yl)propyl)-3-(pyridin-2-yl)benzamide] | 6.00 to 7.00
4 | CN(C)S(=O)(=O)c1ccccc1OCC(=O)NCC(O)CN1Cc2ccccc2C1 (stereo not shown) [compound 15, 2-(2-(N,N-dimethylsulfamoyl)phenoxy)-N-(2-hydroxy-3-(isoindolin-2-yl)propyl)acetamide] | > 7.00
5 | O=C(COc1cccc2cccnc12)NCC(O)CN1Cc2ccccc2C1 (stereo not shown) [compound 19, N-(2-hydroxy-3-(isoindolin-2-yl)propyl)-2-(quinolin-8-yloxy)acetamide] | 6.00 to 7.00
6 | O=C(NC[C@H](O)CN1Cc2ccccc2C1)c1cccc(NC2CCOCC2)c1 [compound 28] | > 7.00
7 | O=C(NC[C@H](O)CN1Cc2ccccc2C1)c1cc(NC2CCOCC2)ncn1 [compound 29] | > 7.00
8 | Cc1nc(NC2COC2)cc(C(=O)NC[C@H](O)CN2Cc3ccccc3C2)n1 [compound 35] | 6.00 to 7.00
9 | O=C(NC[C@H](O)CN1Cc2ccccc2C1)c1cc(NC2COC2)nc(C(F)(F)F)n1 [compound 36] | 6.00 to 7.00
10 | O=C(CCc1nc2ccccc2[nH]1)NCC(O)CN1Cc2ccccc2C1 (stereo not shown) [compound 37] | 6.00 to 7.00
11 | O=C(NC[C@H](O)CN1Cc2ccccc2C1)c1cc(NC2COC2)nc(N2CCOCC2)n1 [compound 38] | > 7.00
12 | CC(=O)N1CCC(Nc2cc(C(=O)NC[C@H](O)CN3Cc4ccccc4C3)ccn2)CC1 [compound 40] | > 7.00
13 | O=C(NC[C@H](O)CN1CCc2ccccc21)c1cc(NC2COC2)ncn1 [compound 42] | < 5.00
14 | CC(=O)N1CCC(Nc2cc(C(=O)NC[C@H](O)CN3CCc4ccccc43)ncn2)CC1 [compound 43] | < 5.00
15 | CC(=O)N1CCC(Nc2cc(C(=O)NC[C@H](O)CN3CCc4ccccc43)ccn2)CC1 [compound 44] | < 5.00
16 | O=C(NC[C@H](O)CN1CCCCc2ccccc21)c1cc(NC2COC2)ncn1 [compound 45] | < 5.00
17 | CC(=O)N1CC(Nc2cc(C(=O)NC[C@H](O)CN3CCCCc4ccccc43)ncn2)C1 [compound 46] | < 5.00
18 | CC(=O)N1CCC(Nc2cc(C(=O)NC[C@H](O)CN3CCCCc4ccccc43)ncn2)CC1 [compound 47] | 5.00 to 6.00
19 | O=C(NC[C@H](O)CN1CCCc2ccccc2C1)c1cc(NC2COC2)ncn1 [compound 48] | < 5.00
20 | CC(=O)N1CC(Nc2cc(C(=O)NC[C@H](O)CN3CCCc4ccccc4C3)ncn2)C1 [compound 49] | 5.00 to 6.00
21 | CC(=O)N1CCC(Nc2cc(C(=O)NC[C@H](O)CN3CCCc4ccccc4C3)ncn2)CC1 [compound 50] | < 5.00
22 | N-(2-hydroxy-3-(isoindolin-2-yl)propyl)-2-((4-methyl-3,4-dihydro-2H-benzo[b][1,4]oxazin-5-yl)oxy)acetamide [compound 10] | 6.00 to 7.00
